Assay results: patent US8435744B2 (priority 2005, dated 2013)
Like-named read-outs stand apart in the source and are kept apart here.

Experiments:
[1] = target: PrP^Sc content in the cells (Mus musculus, UniProt P04925); details: read-out: IC50 (concentration for which 50% of the PrP^Sc content in the cells is inhibited); cited from earlier work
[2] = target: PrP^Sc from infected N2a58/22L cells (Mus musculus, UniProt P04925); type: cell-based, murine
[3] = target: PrP^C from uninfected N2a58 cells (Mus musculus, UniProt P04925); type: cell-based, murine; details: uninfected cells, 1 to 10 μM, FIG. 3
[4] = prolonged incubation up to 14 days, 5 and 20 μM, FIG. 4

PrP^Sc from infected N2a58/22L cells, sequence (P04925 23-230 limits assumed): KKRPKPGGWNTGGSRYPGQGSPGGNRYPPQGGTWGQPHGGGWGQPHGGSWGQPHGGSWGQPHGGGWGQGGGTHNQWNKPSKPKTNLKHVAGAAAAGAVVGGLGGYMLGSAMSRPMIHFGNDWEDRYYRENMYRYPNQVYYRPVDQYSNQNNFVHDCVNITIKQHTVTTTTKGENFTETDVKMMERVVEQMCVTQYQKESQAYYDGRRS
PrP^Sc content in the cells, sequence (P04925 23-230 limits assumed): as above
PrP^C from uninfected N2a58 cells, sequence (P04925 23-230 limits assumed): as above

Compound: N#Cc1c(N)nc(Sc2ccccc2N)c(C#N)c1-c1ccco1 [2-amino-6-[(2-aminophenyl)thio]-4-(2-furyl)pyridine-3,5-dicarbonitrile]
- IC50 [1]: ~15 µM

Compound: COc1ccc(S(=O)(=O)NNC(=O)c2ccc(Cn3cnc(Cl)c3Cl)o2)cc1 [N′-1-({5-[(4,5-dichloro-1H-imidazol-1-yl)methyl]-2-furyl}carbonyl)-4-methoxybenzene-1-sulfonohydrazide]
- IC50 [1]: ~15 µM

Compound: CSc1nccc(-c2ccc(Br)s2)n1 [compound A, 4-(5-bromo-2-thienyl)-2-(methylthio)pyrimidine]
- time at which the state of equilibrium of amplified oligomeric forms is reached ([2]; 5 μM): 11 days
- time at which the state of equilibrium of amplified oligomeric forms is reached ([2]; 20 μM): 3 days
- increase in the signal on the oligomeric forms compared with an untreated control ([2]; 20 μM, N2a58/22L cells, immunoblot after PK): approximately 90 fold
- effect on the amount of PrP^Sc in the infected cells ([2]; infected cells, immunoblotting after proteinase K, FIGS. 1 and 2): notably increases the amount of PrP^Sc
- appearance of oligomeric forms of greater size than those observed over 3 days [2, 4]: does not induce the appearance of oligomeric forms having a size greater
- depletion of monomeric form PrP^Sc27-30 to the benefit of oligomeric forms around 50-60 kDa [2, 4]: No depletion
- oligomerization of PrP^C in the cells [3]: does not increase the oligomerization of PrP^C

Compound: Nc1nccc(-c2ccc(-c3cccs3)s2)n1 [compound B, 4-(5-thienyl-2-thienyl)-2-(amino)-pyrimidine]
- amount of oligomeric forms observed compared with compound A ([2]; 14 days, 20 μM, FIG. 6): much greater than for the compound A
- amount of oligomeric forms of PrP^Sc at 5 μM versus higher concentrations ([2]; N2a58/22L cells, 3 days, 5 to 20 μM): identical to that observed for the concentration of 10 or 20 μM
- amplification capacity, comparative kinetics between compounds B and A ([2]; incubation period of 14 days): greater amplification capacity
